From US9045423B2, “Prophylactic and/or therapeutic agent for anemia comprising tetrahydroquinoline compound as active ingredient” (KOWA COMPANY, LTD., priority 2009, dated 2015) come the findings set out here.

In assay [1] the test system is HepG2 cells derived from human liver cancer. The experiment in a line: EPO production in HepG2 cells (EPO ELISA of culture supernatant). In kind it is cell-based. The settings on record: Homo sapiens; for activity at 3 µM: HepG2, 3 μM test compound, 48 hrs, 4% oxygen, non-stimulated state without compound = 100%, read-out: amount of EPO production, % of control (3 μM); for activity at 10 µM: HepG2, 48 h, final concentration 10 μM, non-stimulated state = 100%, read-out: enhancement of EPO production. On the procedure:
HepG2 cells derived from human liver cancer were inoculated in an amount of 5×10^4 cells per well on a 48-well plate, using minimum essential medium (MEM, Sigma-Aldrich Company) containing 10% bovine fetal serum. On the next day, the medium was exchanged with Dulbecco's modified eagle medium (DMEM (Sigma-Aldrich Company)) containing 10% bovine fetal serum without Phenol Red. Then, a test compound dissolved in DMSO was added thereto to obtain a final concentration of 3 μM or 10 μM, and the amount of medium was adjusted to 400 μL per well. The cells were incubated for 48 hrs in a CO2 incubator in which the oxygen concentration was adjusted to 4%, and then the culture supernatant was collected. The EPO concentration in the culture supernatant was immediately measured using an EPO ELISA kit (Roche Diagnostics GmbH). The method was carried out according to the operation manual.
The amount of EPO production in a non-stimulated state where no compounds were added, was designated as 100%, and the amount of EPO production (% of control) induced by each of the compounds was determined.
On the technique in general: In an ELISA, binding on a coated surface is turned into a signal by an enzyme label.

Assay [2] deals with K562 cells, a human proerythroblast cell line. The experiment in a line: Hemoglobin production in K562 cells (fluorescence of the porphyrin ring). In kind it is cell-based. The settings on record: Homo sapiens, K562, 144 h; 6 μM test compound, 3 + 3 days incubation; non-stimulated state without compound = 100; read-out: amount of hemoglobin, % of control (6 μM). As for the experimental part:
K562 cells (obtained from ATCC), which is a human proerythroblast cell line, were inoculated at a concentration of 1×10^5 cells/1 mL in each well of a 24-well plate, using complete medium (RPMI-1640 medium containing 10% bovine fetal serum), and 1 μL of a test compound at a 1000-fold concentration was added to each well. Subsequently, the cells were incubated for 3 days in a CO2 incubator (37° C., 5% CO2). The medium was exchanged, and the cells were further incubated for 3 days. The cells were collected and counted. Subsequently, the amount of hemoglobin produced in the cells was determined by adjusting the number of cells to 3×10^5 cells, and measuring the fluorescence of the porphyrin ring. That is, the cells collected by centrifugation were suspended in 500 μL of 2 M oxalic acid, and were heated to boil for 30 minutes. The cells were cooled, and then the fluorescence intensity was measured by using a fluorescence microplate reader (Spectra MAX GeminiEM; Molecular Devices Corp.) ([…]). The amount of hemoglobin in a non-stimulated state where no compound was added was designated as 100-, and the amount of hemoglobin (% of control) produced as induced by each of the compounds was determined.

As for `CC(=O)N1c2ccc(C(=O)NC(=O)c3ccccc3)cc2C(Nc2ccc(N3CCOCC3)cc2)CC1C` (stereo not shown) [Compound 166, 1-Acetyl-N-benzoyl-2-methyl-4-[(4-morpholinophenyl)-amino]-1,2,3,4-tetrahydroquinoline-6-carboxamide], the activity at 3 µM in assay [1] is 185%. Moreover, the activity at 6 µM in assay [2] was 282%.

For the molecule `CCOC(=O)c1ccc2c(c1)C(Nc1ccc(-c3ncco3)cc1)CC(C)N2C(C)=O` (stereo not shown) [Compound 167, Ethyl 1-Acetyl-2-methyl-4-{[4-(oxazol-2-yl)phenyl]-amino}-1,2,3,4-tetrahydroquinoline-6-carboxylate], the activity at 10 µM in assay [1] is 142%. Also, in assay [2], the activity at 6 µM was 227%.

Regarding `CC(=O)N1c2ccc(C(=O)O)cc2C(Nc2ccc(-c3ncco3)cc2)CC1C` (stereo not shown) [Compound 168, 1-Acetyl-2-methyl-4-{[4-(oxazol-2-yl)phenyl]-amino}-1,2,3,4-tetrahydroquinoline-6-carboxylic acid], the activity at 3 µM in assay [1] worked out at 144%. For the same molecule, the activity at 6 µM in assay [2] worked out at 204%.

In the case of `CC(=O)N1c2ccc(C(N)=O)cc2C(Nc2ccc(-c3ncco3)cc2)CC1C` (stereo not shown) [Compound 169, 1-Acetyl-2-methyl-4-{[4-(oxazol-2-yl)phenyl]amino}-1,2,3,4-tetrahydroquinoline-6-carboxamide], the activity at 10 µM in assay [1] turned out to be 120%. The activity at 6 µM in assay [2] worked out at 243%.

Take `CCOC(=O)c1ccc2c(c1)C(Nc1ccc(-c3cnns3)cc1)CC(C)N2C(C)=O` (stereo not shown) [Compound 171, Ethyl 1-Acetyl-2-methyl-4-{[4-(1,2,3-thiadiazol-5-yl)-phenyl]amino}-1,2,3,4-tetrahydroquinoline-6-carboxylate]: in assay [1], the activity at 3 µM worked out at 333%. Also, the activity at 6 µM in assay [2] came out at 243%.

As for `CC(=O)N1c2ccc(C(=O)O)cc2C(Nc2ccc(-c3cnns3)cc2)CC1C` (stereo not shown) [Compound 172, 1-Acetyl-2-methyl-4-{[4-(1,2,3-thiadiazol-5-yl)-phenyl]amino}-1,2,3,4-tetrahydroquinoline-6-carboxylic acid], in assay [1], the activity at 3 µM was determined as 152%. Besides, in assay [2], the activity at 6 µM is 168%.

For `CC(=O)N1c2ccc(C(N)=O)cc2C(Nc2ccc(-c3cnns3)cc2)CC1C` (stereo not shown) [Compound 173, 1-Acetyl-2-methyl-4-{[4-(1,2,3-thiadiazol-5-yl)-phenyl]amino}-1,2,3,4-tetrahydroquinoline-6-carboxamide], in assay [1], the activity at 3 µM was determined as 323%. Moreover, in assay [2], the activity at 6 µM came out at 158%.

Consider `CNC(=O)c1ccc2c(c1)C(Nc1ccc(-c3cnns3)cc1)CC(C)N2C(C)=O` (stereo not shown) [Compound 174, 1-Acetyl-N,2-dimethyl-4-{[4-(1,2,3-thiadiazol-5-yl)-phenyl]amino}-1,2,3,4-tetrahydroquinoline-6-carboxamide], for which the activity at 3 µM in assay [1] was determined as 218%. In addition, the activity at 6 µM in assay [2] is 163%.

With `CC(=O)NC(=O)c1ccc2c(c1)C(Nc1ccc(N3CCOCC3)cc1)CC(C)N2C(C)=O` (stereo not shown) [Compound 175, N,1-diacetyl-2-methyl-4-[(4-morpholinophenyl)amino]-1,2,3,4-tetrahydroquinoline-6-carboxamide], the activity at 3 µM in assay [1] was determined as 270%. In assay [2], the activity at 6 µM was found to be 275%.

Take `CC(=O)N1c2ccc(C(=O)NC(C)C)cc2C(Nc2ccc(N3CCOCC3)cc2)CC1C` (stereo not shown) [Compound 176, 1-Acetyl-N-isopropyl-2-methyl-4-[(4-morpholinophenyl)-amino]-1,2,3,4-tetrahydroquinoline-6-carboxamide]: the activity at 3 µM in assay [1] came out at 325%. Moreover, the activity at 6 µM in assay [2] was 355%.

In the case of `CC(=O)N1c2ccc(C(=O)Nc3ccccn3)cc2C(Nc2ccc(N3CCOCC3)cc2)CC1C` (stereo not shown) [Compound 177, 1-Acetyl-2-methyl-4-[(4-morpholinophenyl)-amino]-N-(pyridin-2-yl)-1,2,3,4-tetrahydroquinoline-6-carboxamide], in assay [1], the activity at 3 µM came to 265%. Further, the activity at 6 µM in assay [2] came out at 353%.

For `CC(=O)N1c2ccc(C(=O)NC3CCCCC3)cc2C(Nc2ccc(N3CCOCC3)cc2)CC1C` (stereo not shown) [Compound 178, 1-Acetyl-N-cyclohexyl-2-methyl-4-[(4-morpholinophenyl)-amino]-1,2,3,4-tetrahydroquinoline-6-carboxamide], the activity at 3 µM in assay [1] was 370%. Besides, the activity at 6 µM in assay [2] came to 388%.

As for `CC(=O)N1c2ccc(C(=O)O)cc2C(Nc2cccc(N3CCOCC3)c2)CC1C` (stereo not shown) [Compound 179, 1-Acetyl-2-methyl-4-[(3-morpholinophenyl)-amino]-1,2,3,4-tetrahydroquinoline-6-carboxylic acid], in assay [1], the activity at 3 µM was determined as 138%. Also, in assay [2], the activity at 6 µM was determined as 124%.

On to `CC(=O)N1c2ccc(C(N)=O)cc2C(Nc2cccc(N3CCOCC3)c2)CC1C` (stereo not shown) [Compound 181, 1-Acetyl-2-methyl-4-[(3-morpholinophenyl)amino]-1,2,3,4-tetrahydroquinoline-6-carboxamide], for which the activity at 3 µM in assay [1] is 162%. For the same molecule, in assay [2], the activity at 6 µM came out at 382%.
